# Measured values from US20250195530A1, “POLQ INHIBITORS” (ASTRAZENECA AB, priority 2022, published 2025).
# Where two headings read alike, the source gives them in different places.
# What was measured:
# DLD-1 BRCA2−/− cells = test: Homologous recombination synthetic lethal inhibition of proliferation, DLD-1 BRCA2-/- (Cell Titre Glo 3D); type: cell-based; conditions: for IC50: Homo sapiens
# Method in brief: (§1)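 Read-out: CellTiter-Glo 3D luminescence, day 7 for wt DLD-1, day 12 for BRCA2−/−, about 8-9 population doublings each. Seeding 1,500 or 3,000 cells/mL respectively. Dose range 10 μM–0.51 nM, 3-fold, 10 points, with re-dosing on day 6. IC50 from curve fit.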
# DLD-1 cells = test: Inhibition of proliferation, DLD-1 BRCA2 wt control (Cell Titre Glo 3D); type: cell-based; conditions: for IC50: Homo sapiens
# Method in brief: as §1
# [1] = DLD-1, 288 h, DLD-1 BRCA2−/− cells, 12 days, read-out: POLQ PD Prolif Lumin BRCA2 −/− mean pIC50 (converted)
# [2] = DLD-1, 168 h, DLD-1 BRCA2 wt cells, 7 days, read-out: POLQ PD Prolif Lumin DLD1 mean pIC50 (converted)
# [3] = DLD-1, first proliferation column (c5), DLD-1 BRCA2-/-, read-out: POLQ PD Prolif Lumin (converted)
# [4] = DLD-1, second proliferation column (c6), DLD-1 BRCA2 wt control, read-out: POLQ PD Prolif Lumin (converted)
# [5] = DLD-1, DLD-1 BRCA2 −/−, mean, read-out: POLQ PD Prolif Lumin BRCA2 −/− mean pIC50 (converted)
# [6] = DLD-1, DLD1 BRCA2 wt, mean, read-out: POLQ PD Prolif Lumin DLD1 mean pIC50 (converted)
# [7] = DLD-1, DLD-1 BRCA2-/- proliferation, column head only partly shown, read-out: POLQ PD Prolif Lumin (converted)
# [8] = DLD-1, DLD-1 BRCA2 wt control proliferation, column head only partly shown, read-out: POLQ PD Prolif Lumin (converted)
# [9] = DLD-1, first proliferation column (c5), taken as DLD-1 BRCA2-/-, read-out: POLQ PD Prolif Lumin (converted)
# [10] = DLD-1, second proliferation column (c6), taken as DLD-1 BRCA2 wt, read-out: POLQ PD Prolif Lumin (converted)
structure (smiles),measurement,setting,value
"COCc1cc(OCCN2CCN(C)CC2)ccc1-c1nc2c(OC3(C)CC3)ncnc2n1Cc1ccccc1 [Example T612, 9-benzyl-8-(2-(methoxymethyl)-4-(2-(4-methylpiperazin-1-yl)ethoxy)phenyl)-6-(1-methylcyclopropoxy)-9H-purine]",IC50,"DLD-1 BRCA2−/− cells; DLD-1, first proliferation column, DLD-1 BRCA2-/-, read-out: POLQ PD Prolif Lumin (converted)",1000 nM
same,IC50,"DLD-1 cells; DLD-1, second proliferation column, DLD-1 BRCA2 wt control, read-out: POLQ PD Prolif Lumin (converted)",> 10000 nM
"CC1(Oc2ncnc3c2nc(-c2ccc(OCCCN4CCNCC4)cc2Cl)n3Cc2ccccc2)CC1 [Example D18, 9-benzyl-8-(2-chloro-4-(3-(piperazin-1-yl)propoxy)phenyl)-6-(1-methylcyclopropoxy)-9H-purine]",IC50,DLD-1 BRCA2−/− cells; [1],126 nM
same,IC50,DLD-1 cells; [2],3160 nM
"CC1(Oc2ncnc3c2nc(-c2ccc(OC[C@H]4CCN4)cc2Cl)n3Cc2ccccc2)CC1 [Example D16, (R)-8-(4-(azetidin-2-ylmethoxy)-2-chlorophenyl)-9-benzyl-6-(1-methylcyclopropoxy)-9H-purine]",IC50,DLD-1 BRCA2−/− cells; [1],158 nM
same,IC50,DLD-1 cells; [2],3980 nM
"Cc1cnc(Cn2c(-c3ccc(OC[C@H]4CCCN4)cc3Cl)nc3c(OC4(C)CC4)ncnc32)s1 [Example T139, (R)-2-((8-(2-chloro-4-(pyrrolidin-2-ylmethoxy)phenyl)-6-(1-methylcyclopropoxy)-9H-purin-9-yl)methyl)-5-methylthiazole]",IC50,DLD-1 BRCA2−/− cells; [3],398 nM
same,IC50,DLD-1 cells; [4],> 10000 nM
"COc1ccc(Cl)cc1Cn1c(-c2cccc(CCCC(C)C(=O)O)c2Cl)nc2c(OC3(C)CC3)ncnc21 (racemic) [Example U55, 5-(2-chloro-3-(9-(5-chloro-2-methoxybenzyl)-6-(1-methylcyclopropoxy)-9H-purin-8-yl)phenyl)-2-methylpentanoic acid]",IC50,DLD-1 BRCA2−/− cells; [5],126 nM
same,IC50,DLD-1 cells; [6],> 10000 nM
"Cc1cnc(Cn2c(-c3ccc(OCCN4CCCC4)cc3Cl)nc3c(OC4(C)CC4)ncnc32)s1 [Example T239, 2-((8-(2-chloro-4-(2-(pyrrolidin-1-yl)ethoxy)phenyl)-6-(1-methylcyclopropoxy)-9H-purin-9-yl)methyl)-5-methylthiazole]",IC50,DLD-1 BRCA2−/− cells; [7],251 nM
same,IC50,DLD-1 cells; [8],> 10000 nM
"CC1(Oc2ncnc3c2nc(-c2ccc(OCCN4CCNCC4)cc2Br)n3Cc2cc(Cl)ccn2)CC1 [Example T348, 8-(2-bromo-4-(2-(piperazin-1-yl)ethoxy)phenyl)-9-((4-chloropyridin-2-yl)methyl)-6-(1-methylcyclopropoxy)-9H-purine]",IC50,DLD-1 BRCA2−/− cells; [9],126 nM
same,IC50,DLD-1 cells; [10],> 10000 nM
"COc1ccc(Cl)cc1Cn1c(-c2cccc(O[C@H]3CC[C@@H](C(=O)O)CC3)c2Cl)nc2c(OC3(C)CC3)ncnc21 [Example U50, (1s,4s)-4-(2-chloro-3-(9-(5-chloro-2-methoxybenzyl)-6-(1-methylcyclopropoxy)-9H-purin-8-yl)phenoxy)cyclohexane-1-carboxylic acid]",POLQ PD Prolif Lumin BRCA2 −/− mean pIC50,"DLD-1 BRCA2−/− cells; DLD-1 BRCA2 −/−, mean",7.6
same,POLQ PD Prolif Lumin DLD1 mean pIC50,"DLD-1 cells; DLD1 BRCA2 wt, mean",<5.0
"Cc1ccnc(Cn2c(-c3ccc(OC4CN(C(=O)[C@@H](C)O)C4)cc3Cl)nc3c(OC4(C)CC4)ncnc32)c1 [Example T482, (R)-1-(3-(3-chloro-4-(6-(1-methylcyclopropoxy)-9-((4-methylpyridin-2-yl)methyl)-9H-purin-8-yl)phenoxy)azetidin-1-yl)-2-hydroxypropan-1-one]",IC50,"DLD-1 BRCA2−/− cells; DLD-1, proliferation, luminescence, taken as DLD-1 BRCA2-/-, read-out: POLQ PD Prolif Lumin (converted)",316 nM
same,IC50,"DLD-1 cells; DLD-1, proliferation, luminescence, second Prolif column (c6), taken as DLD-1 BRCA2 wt control, read-out: POLQ PD Prolif Lumin (converted)",> 10000 nM
"CC(CCOc1ccc(-c2nc3c(OC4(C)CC4)ncnc3n2Cc2c(Cl)cccc2Cl)c(Cl)c1)C(=O)O (racemic) [Example T277, 4-(3-chloro-4-(9-(2,6-dichlorobenzyl)-6-(1-methylcyclopropoxy)-9H-purin-8-yl)phenoxy)-2-methylbutanoic acid]",IC50,DLD-1 BRCA2−/− cells; [7],2000 nM
same,IC50,DLD-1 cells; [8],> 10000 nM
"Cc1cnc(Cn2c(-c3ccc(OCCCN4CC(O)C4)cc3Cl)nc3c(OC4(C)CC4)ncnc32)s1 [Example T244, 1-(3-(3-chloro-4-(6-(1-methylcyclopropoxy)-9-((5-methylthiazol-2-yl)methyl)-9H-purin-8-yl)phenoxy)propyl)azetidin-3-ol]",IC50,DLD-1 BRCA2−/− cells; [7],501 nM
same,IC50,DLD-1 cells; [8],> 7940 nM
"CN1CCN(CCOc2ccc(-c3nc4c(OC5(C)CC5)ncnc4n3Cc3ccncc3)c(Cl)c2)CC1 [Example K1, 8-(2-chloro-4-(2-(4-methylpiperazin-1-yl)ethoxy)phenyl)-6-(1-methylcyclopropoxy)-9-(pyridin-4-ylmethyl)-9H-purine]",IC50,DLD-1 BRCA2−/− cells; [1],1000 nM
same,IC50,DLD-1 cells; [2],> 10000 nM
"CC1(Oc2ncnc3c2nc(-c2ccc(OCCN4CCNCC4)cc2Cl)n3Cc2cnc(Cl)s2)CC1 [Example T146, 2-chloro-5-((8-(2-chloro-4-(2-(piperazin-1-yl)ethoxy)phenyl)-6-(1-methylcyclopropoxy)-9H-purin-9-yl)methyl)thiazole]",IC50,DLD-1 BRCA2−/− cells; [3],1260 nM
same,IC50,DLD-1 cells; [4],> 10000 nM
"CC1(Oc2ncnc3c2nc(-c2ccc(OCCOCC(=O)O)cc2Cl)n3Cc2cccc(Cl)c2)CC1 [Example 46, 2-(2-(3-Chloro-4-(9-(3-chlorobenzyl)-6-(1-methylcyclopropoxy)-9H-purin-8-yl)phenoxy)ethoxy)acetic acid]",IC50,"DLD-1 BRCA2−/− cells; DLD-1, 288 h, DLD-1 BRCA2−/−, 12 days, Cell Titre Glo 3D, read-out: POLQ PD Prolif Lumin BRCA2 −/− Mean pIC50 (converted)",1260 nM
same,IC50,"DLD-1 cells; DLD-1, 168 h, DLD-1 (BRCA2 wt control), 7 days, Cell Titre Glo 3D, read-out: POLQ PD Prolif Lumin DLD1 Mean pIC50 (converted)",> 10000 nM
"C[C@@H](CCOc1cccc(-c2nc3c(OC4(C)CC4)ncnc3n2Cc2cc(Cl)ccc2C#N)c1Cl)C(=O)O [Example U87, (S)-4-(2-chloro-3-(9-(5-chloro-2-cyanobenzyl)-6-(1-methylcyclopropoxy)-9H-purin-8-yl)phenoxy)-2-methylbutanoic acid]",IC50,DLD-1 BRCA2−/− cells; [5],15.8 nM
same,IC50,DLD-1 cells; [6],> 10000 nM
"Cc1ccnc(Cn2c(-c3ccc(C(N)=O)cc3Cl)nc3c(OC4(C)CC4)ncnc32)c1 [Example T14, 3-chloro-4-(6-(1-methylcyclopropoxy)-9-((4-methylpyridin-2-yl)methyl)-9H-purin-8-yl)benzamide]",IC50,"DLD-1 BRCA2−/− cells; DLD-1, DLD-1 BRCA2 −/− cells, mean, read-out: POLQ PD Prolif Lumin BRCA2 −/− mean pIC50 (converted)",501 nM
same,IC50,"DLD-1 cells; DLD-1, DLD1 BRCA2 wt cells, mean, read-out: POLQ PD Prolif Lumin DLD1 mean PIC50 (converted)",> 10000 nM
"CC1(Oc2ncnc3c2nc(-c2ccc(OCCN4CCNCC4)cc2Cl)n3Cc2ccc(Cl)cn2)CC1 [Example K3, 8-(2-chloro-4-(2-(piperazin-1-yl)ethoxy)phenyl)-9-((5-chloropyridin-2-yl)methyl)-6-(1-methylcyclopropoxy)-9H-purine]",IC50,DLD-1 BRCA2−/− cells; [1],1260 nM
same,IC50,DLD-1 cells; [2],> 10000 nM
"CC1(Oc2ncnc3c2nc(-c2ccc(OCC4(F)CNC4)cc2Cl)n3Cc2ccccc2)CC1 [Example D19, 9-benzyl-8-(2-chloro-4-((3-fluoroazetidin-3-yl)methoxy)phenyl)-6-(1-methylcyclopropoxy)-9H-purine]",IC50,DLD-1 BRCA2−/− cells; [1],501 nM
same,IC50,DLD-1 cells; [2],5010 nM
"Cc1ccnc(Cn2c(-c3ccc(OC[C@H]4CCCN4)cc3Cl)nc3c(OC4(C)CC4)ncnc32)c1 [Example T356, (R)-8-(2-chloro-4-(pyrrolidin-2-ylmethoxy)phenyl)-6-(1-methylcyclopropoxy)-9-((4-methylpyridin-2-yl)methyl)-9H-purine]",IC50,DLD-1 BRCA2−/− cells; [9],200 nM
same,IC50,DLD-1 cells; [10],> 10000 nM
"CN1CCC(COc2ccc(-c3nc4c(OC5(C)CC5)ncnc4n3Cc3ccccc3)c(Cl)c2)CC1 [Example 5, 9-Benzyl-8-(2-chloro-4-((1-methylpiperidin-4-yl)methoxy)phenyl)-6-(1-methylcyclopropoxy)-9H-purine]",IC50,DLD-1 BRCA2−/− cells; [1],50.1 nM
same,IC50,DLD-1 cells; [2],3160 nM
"CN(C)CCOc1ccc(-c2nc3c(OC4(C)CC4)ncnc3n2Cc2cc(Cl)ccn2)c(Cl)c1 [Example T135, 2-(3-chloro-4-(9-((4-chloropyridin-2-yl)methyl)-6-(1-methylcyclopropoxy)-9H-purin-8-yl)phenoxy)-N,N-dimethylethan-1-amine]",IC50,DLD-1 BRCA2−/− cells; [3],50.1 nM
same,IC50,DLD-1 cells; [4],> 10000 nM
"CC(=O)COc1ccc(-c2nc3c(OC4(C)CC4)ncnc3n2Cc2cc(C)ccn2)c(Cl)c1 [Example T104, 1-(3-chloro-4-(6-(1-methylcyclopropoxy)-9-((4-methylpyridin-2-yl)methyl)-9H-purin-8-yl)phenoxy)propan-2-one]",IC50,DLD-1 BRCA2−/− cells; [3],200 nM
same,IC50,DLD-1 cells; [4],> 10000 nM
"Cc1cnc(Cn2c(-c3ccc(OC4CCCNCC4)cc3Cl)nc3c(OC4(C)CC4)ncnc32)s1 (single isomer, unassigned) [Example T243, 2-((8-(4-(azepan-4-yloxy)-2-chlorophenyl)-6-(1-methylcyclopropoxy)-9H-purin-9-yl)methyl)-5-methylthiazole]",POLQ PD Prolif Lumin,"DLD-1 BRCA2−/− cells; DLD-1 BRCA2-/- proliferation, column head only partly shown",6.3
same,POLQ PD Prolif Lumin,"DLD-1 cells; DLD-1 BRCA2 wt control proliferation, column head only partly shown",<5.0
